One data set deals with Fusarium culmorum. In kind it is in vivo.
Data set [1] concerns Pyrenophora teres (Helminthosporium). As to the kind of experiment: Assay B-10: Effect against Pyrenophora teres (Helminthosporium)/barley (net blotch on barley). In kind it is in vivo. To be noted: Pyrenophora teres on barley cv. Regina, 0.02% active substance, spray; for pest or weed control at 0.02 % strength: 96 h, read-out: B10 activity. The essentials:
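One-week-old barley cv. Regina sprayed with formulated compound at 0.02% active substance, then inoculated 2 days later with 3×10^4 conidia/ml. Held 2 days at 20° C/95% r.h., then 2 days at 20° C/60% r.h.; disease incidence scored 4 days after inoculation.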

In the next data set the test system is Septoria nodorum. As to the kind of experiment: Assay B-12: Effect against Septoria nodorum/wheat (Septoria leaf spot on wheat). The format is in vivo. The settings on record: Septoria nodorum on wheat cv. Arina, 0.02% active substance, spray; for pest or weed control at 0.02 % strength: Parastagonospora nodorum, 264 h, read-out: B12 activity.
The test system of a further data set is Venturia inaegualis. Nature of the data set: Assay B-5: Residual protective activity against Venturia inaegualis on apples (scab on apple). To be noted: Venturia inaegualis on apple seedlings cv. McIntosh; 0.02% active substance, spray. The format is in vivo. As to the method: Assay B-5: Residual Protective Activity Against Venturia inaegualis on Apples (Scab on Apple) 4 week old apple seedlings cv. McIntosh are treated with the formulated testcompound (0.02% active substance) in a spray chamber. One day after application apple plants are inoculated by spraying a spore suspension (4×10^5 conidia/ml) on the test plants. After an incubation period of 4 days at 21° C. and 95% r. h. the plants are placed for 4 days at 21° C. and 60% r. h. in a greenhouse. After another 4 day incubation period at 21° C. and 95% r. h. the disease incidence is assessed.

Another data set concerns Pyricularia oryzae. In kind it is in vivo. To be noted: Pyricularia oryzae on rice cv. Sasanishiki; 0.02% active substance, spray.
The test system of data set [2] is Botrytis cinerea. Nature of the data set: Assay B-8: Effect against Botrytis cinerea/tomato (Botrytis on tomatoes). The format is in vivo. To be noted: Botrytis cinerea on tomato cv. Roter Gnom; 0.02% active substance, spray. Here is the method:
Assay B-8: Effect Against Botrytis cinerea/Tomato (Botrytis on Tomatoes) 4 week old tomato plants cv. Roter Gnom are treated with the formulated testcompound 0.02% active substance) in a spray chamber. Two days after application tomato plants are inoculated by spraying a spore suspension (1×10^5 conidia/ml) on the test plants. After an incubation period of 4 days at 20° C. and 95% r. h. in a greenhouse the disease incidence is assessed.

Data set [3] deals with Botrytis cinerea. As to the kind of experiment: Assay B-7: Botrytis cinerea/grape (Botrytis on grapes). The format is in vivo. The settings on record: Botrytis cinerea on grape seedlings cv. Gutedel; 0.02% active substance, spray. As to the method: Assay B-7: Botrytis cinerea/Grape (Botrytis on Grapes) 5 week old grape seedlings cv. Gutedel are treated with the formulated testcompound (0.02% active substance) in a spray chamber. Two days after application grape plants are inoculated by spraying a spore suspension (1×10^6 conidia/ml) on the test plants. After an incubation period of 4 days at 21° C. and 95% r. h. in a greenhouse the disease incidence is assessed.

A further data set deals with Erysiphe graminis. As to the kind of experiment: Assay B-6: Effect against Erysiphe graminis on barley (powdery mildew); residual protective / systemic activity. To be noted: 0.02% active substance spray (residual) or 0.002% soil (systemic), variant not stated. The format is in vivo. Here is the method:
Assay B-6: Effect Against Erysiphe graminis on Barley (Powdery Mildew on Barley) a) Residual Protective Activity […] The infected plants are placed in a greenhouse at 22°. 12 days after infection, the fungal attack is evaluated. b) Systemic Activity […] […] 48 hours later, the plants are dusted with conidia of the fungus. The infected plants are placed in a greenhouse at 22° C. 12 days after infection, the disease incidence is evaluated.

Where [4] appears, read: Fusarium culmorum, wheat seeds cv. Orestis in pouch, 0.002% active substance.

Where two headings read alike, the source gives them in different places.

As a reminder, the melting point is the temperature of the solid-liquid transition.

Regarding `CC(=O)Nc1cc(-c2ccnc(Nc3cccc(Cl)c3)n2)ccn1` [Compound 61], the melting point lay in the range of 245 to 247 °C. In addition, the B11 activity result in the data set on Fusarium culmorum (setting [4]) is recorded as “+ (the activity observed in the corresponding test system is 70% or more)”.

On to `COCC(C)Nc1cc(-c2ccnc(Nc3cccc(OC(F)(F)C(F)F)c3)n2)ccn1` (stereo not drawn) [Compound 5], for which, in data set [1], the B10 activity result is recorded as “+ (the activity observed in the corresponding test system is 70% or more)”. Moreover, the B11 activity result in the data set with Fusarium culmorum (in vivo) was “+ (key: +: the activity observed in the corresponding test system is 70% or more)”. Moreover, the B12 activity entry with Septoria nodorum is listed as “+ (the activity observed in the corresponding test system is 70% or more)”.

On to `CC(=Nc1cc(-c2ccnc(Nc3cccc(Cl)c3)n2)ccn1)N(C)C` [Compound 66], for which, in [1], the B10 activity entry is “+ (the activity observed in the corresponding test system is 70% or more)”. The B11 activity entry in the data set on Fusarium culmorum (in vivo) is reported as “+ (key: +: the activity observed in the corresponding test system is 70% or more)”. Also, the B12 activity entry in the data set on Septoria nodorum is “+ (the activity observed in the corresponding test system is 70% or more)”. In the data set with Venturia inaegualis, the B5 activity result was “+ (the activity observed in the corresponding test system is 70% or more)”. The B9 activity entry with Pyricularia oryzae was “+ (the activity observed in the corresponding test system is 70% or more)”. For the same compound, in the data set on Botrytis cinerea [2], the B8 activity entry is “+ (the activity observed in the corresponding test system is 70% or more)”. Further, in the data set with Botrytis cinerea [3], the B7 activity entry was “+ (the activity observed in the corresponding test system is 70% or more)”.

Turning to `CCC(CO)Nc1cc(-c2ccnc(Nc3cccc(Cl)c3)n2)ccn1` (stereo not drawn) [Compound 31], the B10 activity result in data set [1] is “+ (the activity observed in the corresponding test system is 70% or more)”. Further, in the data set with Fusarium culmorum (in vivo), the B11 activity entry was “+ (key: +: the activity observed in the corresponding test system is 70% or more)”. Besides, in the data set on Venturia inaegualis, the B5 activity result is “+ (the activity observed in the corresponding test system is 70% or more)”. Besides, the B8 activity result in the data set on Botrytis cinerea [2] is reported as “+ (the activity observed in the corresponding test system is 70% or more)”. Further, the B7 activity result in the data set with Botrytis cinerea [3] is reported as “+ (the activity observed in the corresponding test system is 70% or more)”.

Turning to `CCC(COC)Nc1cc(-c2ccnc(Nc3cccc(Cl)c3)n2)ccn1` (stereo not drawn) [Compound 4], in the data set with Fusarium culmorum (in vivo), the B11 activity entry was “+ (key: +: the activity observed in the corresponding test system is 70% or more)”. In the data set on Septoria nodorum, the B12 activity entry is “+ (the activity observed in the corresponding test system is 70% or more)”. Besides, in the data set with Erysiphe graminis, the B6 activity entry is “+ (the activity observed in the corresponding test system is 70% or more)”. In the data set on Pyricularia oryzae, the B9 activity result is listed as “+ (the activity observed in the corresponding test system is 70% or more)”. The B8 activity result in the data set on Botrytis cinerea [2] is reported as “+ (the activity observed in the corresponding test system is 70% or more)”.

Turning to `CC(C)Nc1cc(-c2ccnc(Nc3cccc(Cl)c3)n2)ccn1` [Compound 68], the melting point was in the range of 184 to 185 °C. For the same compound, the pest or weed control at 0.02 % strength in data set [1] was greater than 70%. For the same compound, in the data set with Fusarium culmorum (setting [4]), the B11 activity result is given as “+ (the activity observed in the corresponding test system is 70% or more)”. For the same compound, in the data set with Septoria nodorum, the pest or weed control at 0.02 % strength is greater than 70%. The B8 activity result in the data set with Botrytis cinerea [2] is on record as “+ (the activity observed in the corresponding test system is 70% or more)”.

As for `COC(OC)C(C)Nc1cc(-c2ccnc(Nc3cccc(Cl)c3)n2)ccn1` (stereo not drawn) [Compound 65], in [1], the B10 activity result was “+ (the activity observed in the corresponding test system is 70% or more)”. Also, the B12 activity result with Septoria nodorum was “+ (the activity observed in the corresponding test system is 70% or more)”. The B6 activity entry in the data set on Erysiphe graminis is listed as “+ (the activity observed in the corresponding test system is 70% or more)”. Further, the B5 activity result in the data set on Venturia inaegualis is “+ (the activity observed in the corresponding test system is 70% or more)”. In the data set on Pyricularia oryzae, the B9 activity result is “+ (the activity observed in the corresponding test system is 70% or more)”. Further, the B8 activity entry in the data set with Botrytis cinerea [2] was “+ (the activity observed in the corresponding test system is 70% or more)”. Also, the B7 activity entry in the data set with Botrytis cinerea [3] is reported as “+ (the activity observed in the corresponding test system is 70% or more)”.

Consider `Clc1cccc(Nc2nccc(-c3ccnc(NC4CCOCC4)c3)n2)c1` [Compound 83], for which the B10 activity result in [1] is on record as “+ (the activity observed in the corresponding test system is 70% or more)”. In addition, the B11 activity entry in the data set with Fusarium culmorum (in vivo) is “+ (key: +: the activity observed in the corresponding test system is 70% or more)”. Moreover, the B12 activity entry in the data set with Septoria nodorum is recorded as “+ (the activity observed in the corresponding test system is 70% or more)”. Besides, the B8 activity entry in the data set on Botrytis cinerea [2] is on record as “+ (the activity observed in the corresponding test system is 70% or more)”.

Take `COCCNc1cc(-c2ccnc(Nc3cccc(Cl)c3)n2)ccn1` [Compound 34]: in data set [1], the B10 activity entry is “+ (the activity observed in the corresponding test system is 70% or more)”. Moreover, the B11 activity entry in the data set on Fusarium culmorum (in vivo) is recorded as “+ (key: +: the activity observed in the corresponding test system is 70% or more)”. The B12 activity entry in the data set on Septoria nodorum is “+ (the activity observed in the corresponding test system is 70% or more)”. Also, the B8 activity entry in the data set with Botrytis cinerea [2] was “+ (the activity observed in the corresponding test system is 70% or more)”. For the same compound, in the data set with Botrytis cinerea [3], the B7 activity result is on record as “+ (the activity observed in the corresponding test system is 70% or more)”.

Turning to `Nc1cc(-c2ccnc(Nc3cccc(Cl)c3)n2)ccn1` [Compound 58], the melting point fell in the range of 214 to 215 °C. The pest or weed control at 0.02 % strength in data set [1] is greater than 70%. In addition, the pest or weed control at 0.02 % strength with Septoria nodorum is greater than 70%. Further, in the data set on Erysiphe graminis, the B6 activity entry is on record as “+ (the activity observed in the corresponding test system is 70% or more)”. Besides, the B5 activity entry in the data set with Venturia inaegualis was “+ (the activity observed in the corresponding test system is 70% or more)”. In the data set with Pyricularia oryzae, the B9 activity result was “+ (the activity observed in the corresponding test system is 70% or more)”. The B8 activity entry in the data set with Botrytis cinerea [2] is recorded as “+ (the activity observed in the corresponding test system is 70% or more)”. Also, in the data set on Botrytis cinerea [3], the B7 activity result is “+ (the activity observed in the corresponding test system is 70% or more)”.

(Values after patent publication US7109197B2, “N-phenyl-4-(4-pyridyl)-2-pyrimidineamine derivatives” (Syngenta Crop Protection, Inc., priority 2000, dated 2006).)
